Like-named read-outs stand apart in the source and are kept apart here.
Legend:
A375 cells = assay: Synergy determination with the Chou-Talalay method (CompuSyn), cell viability 72 h; type: cell-based, human; settings: 72 h cell viability, Chou-Talalay / Synergyfinder
Method: The Chou-Talalay method to determine possible synergistic effects of selected kinase inhibitor combinations was used as described in [19]. […] Cells were treated with either single inhibitors or combinations thereof at indicated amounts in technical triplicates. The amounts were pre-determined from each inhibitor’s IC50 value and inhibitors were assayed in a defined dilution series and at constant ratio when combined. […] Combination Index (CI) values showing either synergy (< 1) or antagonism (> 1) were calculated with the CompuSyn software (ComboSyn, Inc).

A375 cells (parental) [1] = assay: Dose-response curves and IC50, PrestoBlue cell viability, 72 h; type: cell-based, human; settings: read-out: Half-maximal inhibitory concentration value (IC50), Mean
[2] = system: A375-XP cells (Vemurafenib-resistant); assay: Kinase inhibitor library screening, PrestoBlue cell viability, 1 or 10 μM, 72 h; settings: for cell viability (kinase inhibitor library screening): A375 XP, 72 h; for viability at 1 µM / viability at 10 µM: Homo sapiens, A-375, 72 h; for viability at 1 µM: read-out: cell viability, A375 XP, 1μΜ; for viability at 10 µM: read-out: cell viability, A375 XP, 10μΜ
501Mel cells (parental) = assay: as above; settings: 72 h; for cell viability (kinase inhibitor library screening): 501Mel Parental; for viability at 1 µM / viability at 10 µM: Homo sapiens; for viability at 1 µM: read-out: cell viability, 501Mel Parental, 1μΜ; for viability at 10 µM: read-out: cell viability, 501Mel Parental, 10μΜ
In short: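 Two concentrations of every kinase inhibitor were tested on each melanoma line and its resistant counterparts, and cell survival was quantified by PrestoBlue against untreated wells.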

[3] = system: A375-GP cells (Dabrafenib-resistant); assay: as above; settings: for cell viability (kinase inhibitor library screening): A375 GP, 72 h; for viability at 1 µM / viability at 10 µM: Homo sapiens, A-375, 72 h; for viability at 1 µM: read-out: cell viability, A375 GP, 1μΜ; for viability at 10 µM: read-out: cell viability, A375 GP, 10μΜ
[4] = system: 501Mel-XP cells (Vemurafenib-resistant); assay: as above; settings: 72 h; for cell viability (kinase inhibitor library screening): 501Mel XP; for viability at 1 µM / viability at 10 µM: Homo sapiens; for viability at 1 µM: read-out: cell viability, 501Mel XP, 1μΜ; for viability at 10 µM: read-out: cell viability, 501Mel XP, 10μΜ
[5] = system: IGR37-GP cells (Dabrafenib-resistant); assay: as above; settings: for cell viability (kinase inhibitor library screening): IGR37 GP, 72 h; for viability at 1 µM / viability at 10 µM: Homo sapiens, IGR-37, 72 h; for viability at 1 µM: read-out: cell viability, IGR37 GP, 1μΜ; for viability at 10 µM: read-out: cell viability, IGR37 GP, 10μΜ
[6] = system: 501Mel-GP cells (Dabrafenib-resistant); assay: as above; settings: 72 h; for cell viability (kinase inhibitor library screening): 501Mel GP; for viability at 1 µM / viability at 10 µM: Homo sapiens; for viability at 1 µM: read-out: cell viability, 501Mel GP, 1μΜ; for viability at 10 µM: read-out: cell viability, 501Mel GP, 10μΜ
A375 cells (parental) [7] = assay: as above; settings: for cell viability (kinase inhibitor library screening): A375 Parental, 72 h; for viability at 1 µM / viability at 10 µM: Homo sapiens, A-375, 72 h; for viability at 1 µM: read-out: cell viability, A375 Parental, 1μΜ; for viability at 10 µM: read-out: cell viability, A375 Parental, 10μΜ
[8] = system: IGR37-XP cells (Vemurafenib-resistant); assay: as above; settings: for cell viability (kinase inhibitor library screening): IGR37 XP, 72 h; for viability at 1 µM / viability at 10 µM: Homo sapiens, IGR-37, 72 h; for viability at 1 µM: read-out: cell viability, IGR37 XP, 1μΜ; for viability at 10 µM: read-out: cell viability, IGR37 XP, 10μΜ
IGR37 cells (parental) = assay: as above; settings: for cell viability (kinase inhibitor library screening): IGR37 Parental, 72 h; for viability at 1 µM / viability at 10 µM: Homo sapiens, IGR-37, 72 h; for viability at 1 µM: read-out: cell viability, IGR37 Parental, 1μΜ; for viability at 10 µM: read-out: cell viability, IGR37 Parental, 10μΜ
[9] = system: A375-XP cells (Vemurafenib-resistant); assay: Dose-response curves and IC50, PrestoBlue cell viability, 72 h; type: cell-based, human; settings: n.e. = did not suppress growth below 50% in the tested concentration range, read-out: Half-maximal inhibitory concentration value (IC50), Mean
[10] = system: A375-GP cells (Dabrafenib-resistant); assay: as above; type: cell-based, human; settings: n.e. = did not suppress growth below 50% in the tested concentration range, read-out: Half-maximal inhibitory concentration value (IC50), Mean
[11] = Homo sapiens, A-375, n.e. = did not suppress growth below 50% in the tested concentration range

SMILES | synergistic effects with the BRAF inhibitors Vemurafenib and/or Dabrafenib (in words) (A375 cells) | IC50 (A375 cells (parental) [1]; [11]) | IC50 ([9]; Homo sapiens) | IC50 ([10]; Homo sapiens) | viability at 1 µM [2] | viability at 10 µM [2] | viability at 1 µM (501Mel cells (parental)) | viability at 10 µM (501Mel cells (parental)) | viability at 1 µM [3] | viability at 10 µM [3] | viability at 1 µM [4] | viability at 10 µM [4] | viability at 1 µM [5] | viability at 10 µM [5] | viability at 1 µM [6] | viability at 10 µM [6] | viability at 1 µM (A375 cells (parental) [7]) | viability at 10 µM (A375 cells (parental) [7]) | viability at 1 µM [8] | viability at 10 µM [8] | other results
O=C(NC1CCNCC1)c1[nH]ncc1NC(=O)c1c(Cl)cccc1Cl [AT7519, reference compound] | did not act synergistically | 544 nM | 631 nM | 645 nM | – | – | – | – | – | – | – | – | – | – | – | – | – | – | – | – | cell viability (kinase inhibitor library screening) ([2]; 1μΜ): 37.2%; cell viability (kinase inhibitor library screening) ([2]; 10μΜ): 7.6%; cell viability (kinase inhibitor library screening) (501Mel cells (parental); 1μΜ): 82.3%; cell viability (kinase inhibitor library screening) (501Mel cells (parental); 10μΜ): 1.4%; cell viability (kinase inhibitor library screening) ([3]; 1μΜ): 17.7%; cell viability (kinase inhibitor library screening) ([3]; 10μΜ): 4.8%; cell viability (kinase inhibitor library screening) ([4]; 1μΜ): 73.2%; cell viability (kinase inhibitor library screening) ([4]; 10μΜ): 0.0524%; cell viability (kinase inhibitor library screening) ([5]; 1μΜ): 35.9%; cell viability (kinase inhibitor library screening) ([5]; 10μΜ): 3.9%; cell viability (kinase inhibitor library screening) ([6]; 1μΜ): 96.2%; cell viability (kinase inhibitor library screening) ([6]; 10μΜ): 0.428%; cell viability (kinase inhibitor library screening) (A375 cells (parental) [7]; 10μΜ): 8.2%; cell viability (kinase inhibitor library screening) (A375 cells (parental) [7]; 1μΜ): 30.7%; cell viability (kinase inhibitor library screening) ([8]; 1μΜ): 10.8%; cell viability (kinase inhibitor library screening) ([8]; 10μΜ): 2.4%; cell viability (kinase inhibitor library screening) (IGR37 cells (parental); 1μΜ): 79.7%; cell viability (kinase inhibitor library screening) (IGR37 cells (parental); 10μΜ): 2.2%
Cc1cc(C(=O)NOCCO)c(Nc2ccc(I)cc2F)n(C)c1=O [AZD8330, reference compound] | synergistic effects at low concentrations | 1.8 nM | – | 3.2 nM | 10.5% | 12.1% | 48.9% | 52.5% | 17.9% | 13.3% | 69.7% | 56.7% | 57.5% | 52% | 86.3% | 74.6% | 17.3% | 17.7% | 45.7% | 19% | viability at 1 µM (IGR37 cells (parental)): 33%; viability at 10 µM (IGR37 cells (parental)): 34%
CN1CC[C@H](c2c(O)cc(O)c3c(=O)cc(-c4ccccc4Cl)oc23)[C@H](O)C1.Cl [Flavopiridol HCL] | did not act synergistically | – | – | – | – | – | – | – | – | – | – | – | – | – | – | – | – | – | – | – | IC50 (A375 cells (parental) [1]; n.e. = did not suppress growth below 50% in the tested concentration range): 112 nM; IC50 [9]: 136 nM; IC50 [10]: 123 nM
O=C(Nc1cc(C(F)(F)F)cc(C(F)(F)F)c1)c1cc(Cl)ccc1O [IMD 0354, reference compound] | did not act synergistically | 640 nM | 1000 nM | 738 nM | 29.7% | 4.8% | 34.2% | -0.0333% | 25.5% | 8.1% | 26% | -0.369% | 46.7% | 15.4% | 25.5% | -0.276% | 23.1% | 6.5% | 41.2% | 4.1% | viability at 1 µM (IGR37 cells (parental)): 59.5%; viability at 10 µM (IGR37 cells (parental)): 2.8%

From publication PMC6364417, “Kinase inhibitor library screening identifies synergistic drug combinations effective in sensitive and resistant melanoma cells” (Journal of Experimental & Clinical Cancer Research : CR, 2019)
